ChEMBL document CHEMBL1201862, “PubChem BioAssay data set” (2004)
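1) Cells in 96-well plates. 2) Compound, 48 h, 5 concentrations. 3) Linear interpolation between surrounding doses. 4) Unreached endpoint = highest concentration. Here, GI50 denotes the concentration required for 50% inhibition of growth.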 Activity calls are given as the source filed them. Rule as the data show it: active = GI50 up to about 1.1 µM and inactive = higher.

Key:
Assay in all cases: growth of human tumour cells (NCI), 48 h
OVCAR-4 = tested on: OVCAR-4
RXF 393 = tested on: RXF 393
XF498 = tested on: XF498
DMS-273 = tested on: DMS-273
LXFL 529 = tested on: LXFL 529
A498 = tested on: A498
MOLT-4 = tested on: MOLT-4
KM-20L2 = tested on: KM-20L2
SK-OV-3 = tested on: SK-OV-3
HOP-18 = tested on: HOP-18
NCI-H460 = tested on: NCI-H460
SK-MEL-2 = tested on: SK-MEL-2
DLD-1 = tested on: DLD-1
IGROV-1 = tested on: IGROV-1
DU-145 = tested on: DU-145
NCI/ADR-RES = tested on: NCI/ADR-RES
MCF7 = tested on: MCF7
T47D = tested on: T47D
MDA-MB-435 = tested on: MDA-MB-435
MDA-N = tested on: MDA-N

Row | SMILES | GI50 (OVCAR-4) | GI50 (RXF 393) | GI50 (XF498) | GI50 (DMS-273) | GI50 (LXFL 529) | GI50 (A498) | GI50 (MOLT-4) | GI50 (KM-20L2) | GI50 (SK-OV-3) | GI50 (HOP-18) | GI50 (NCI-H460) | GI50 (SK-MEL-2) | GI50 (DLD-1) | GI50 (IGROV-1) | GI50 (DU-145) | GI50 (NCI/ADR-RES) | GI50 (MCF7) | GI50 (T47D) | GI50 (MDA-MB-435) | GI50 (MDA-N)
1 | COc1cc(Cc2ccc3c(c2C#N)N(C)c2ccccc2S3)cc(OC)c1OC | > 100 µM (inactive) | 15.3 µM (inactive) | 30.1 µM (inactive) | 33.4 µM (inactive) | 6.87 µM (inactive) | 21.8 µM (inactive) | 13.7 µM (inactive) | 36.1 µM (inactive) | > 100 µM (inactive) | 72.4 µM (inactive) | 52.2 µM (inactive) | > 100 µM (inactive) | > 100 µM (inactive) | > 100 µM (inactive) |  |  |  |  |  | 
2 | CCc1ccccc1NC(=O)C1=C(C)NC(C)=C(C(=O)Nc2ccccc2CC)C1c1cccc([N+](=O)[O-])c1 | 7.85 µM (inactive) | 10.5 µM (inactive) |  |  | 26.2 µM (inactive) | 24.2 µM (inactive) | 7.45 µM (inactive) | 31 µM (inactive) | > 100 µM (inactive) |  | 27.7 µM (inactive) | 19.5 µM (inactive) | 19.9 µM (inactive) | 21.8 µM (inactive) |  |  |  |  |  | 
3 | Cc1cc(NS(=O)(=O)c2ccc(NC(=O)c3cccc4c(Nc5ccc(S(N)(=O)=O)cc5)c5ccccc5nc34)cc2)no1 | > 100 µM (inactive) | > 100 µM (inactive) | 59.7 µM (inactive) |  | > 100 µM (inactive) | > 100 µM (inactive) | > 100 µM (inactive) |  | > 100 µM (inactive) |  | > 100 µM (inactive) | > 100 µM (inactive) | > 100 µM (inactive) |  |  |  |  |  |  | 
4 | COc1cc([N+](=O)[O-])ccc1NC(=O)c1cccc([N+](=O)[O-])c1O | 23.4 µM (inactive) |  |  |  | 21.3 µM (inactive) | 17.9 µM (inactive) | 30.9 µM (inactive) | 27.5 µM (inactive) | 23.1 µM (inactive) | 5.32 µM (inactive) | 27.7 µM (inactive) | 17.5 µM (inactive) | 16.1 µM (inactive) | 14.1 µM (inactive) |  |  |  |  |  | 
5 | CC(NCc1c(O)ccc2ccc(=O)oc12)C(=O)O (stereo not given) | > 100 µM (inactive) | > 100 µM (inactive) |  |  |  |  | > 100 µM (inactive) |  | > 100 µM (inactive) |  | > 100 µM (inactive) | > 100 µM (inactive) |  | > 100 µM (inactive) | > 100 µM (inactive) | > 100 µM (inactive) | > 100 µM (inactive) | > 100 µM (inactive) | > 100 µM (inactive) | > 100 µM (inactive)
6 | Cc1cc2c(C)nn(Cc3ccc(Cl)cc3)c2c(C#N)c1C |  | 45.9 µM (inactive) | 39.1 µM (inactive) | > 100 µM (inactive) | > 100 µM (inactive) |  | > 10 µM (inactive) | > 100 µM (inactive) | > 100 µM (inactive) | > 100 µM (inactive) |  | > 100 µM (inactive) |  | > 100 µM (inactive) |  |  |  |  |  | 
7 | C=C(c1ccccc1)c1cc2c(=O)[nH]ccc2n1C | 35.5 µM (inactive) | 19.3 µM (inactive) | 30.5 µM (inactive) | 27.5 µM (inactive) | 35.6 µM (inactive) |  | 27.2 µM (inactive) | 23.3 µM (inactive) | 26 µM (inactive) |  | 30.1 µM (inactive) | 21.5 µM (inactive) | 31.9 µM (inactive) | 44.4 µM (inactive) |  |  |  |  |  | 
8 | O=C1c2ccccc2N1C(=O)c1ccccc1[N+](=O)[O-] | 30 µM (inactive) |  |  |  |  | > 100 µM (inactive) | > 100 µM (inactive) |  | > 100 µM (inactive) |  | > 100 µM (inactive) | 90.8 µM (inactive) |  | > 100 µM (inactive) | > 100 µM (inactive) |  | 97.1 µM (inactive) | > 100 µM (inactive) | > 100 µM (inactive) | 74.6 µM (inactive)
9 | O=C1OC(c2ccc(O)c(F)c2)(c2ccc(O)c(F)c2)c2cccc3cccc1c23 | 0.0601 µM (active) | > 25 µM (inactive) |  |  |  | > 25 µM (inactive) | 5.35 µM (inactive) |  | > 25 µM (inactive) |  | > 25 µM (inactive) | > 25 µM (inactive) |  | > 25 µM (inactive) | > 25 µM (inactive) | 24.7 µM (inactive) | 1.79 µM (inactive) |  | > 25 µM (inactive) | 15.6 µM (inactive)
10 | N#CCCOCN(CO)c1nc(N(CO)COCCC#N)nc(N(CO)COCCC#N)n1 | 26.9 µM (inactive) | 20.9 µM (inactive) | 17.5 µM (inactive) | 18.7 µM (inactive) | 17 µM (inactive) | > 100 µM (inactive) | 21.9 µM (inactive) | 25.9 µM (inactive) | > 100 µM (inactive) | 24.3 µM (inactive) | 29.7 µM (inactive) | 19 µM (inactive) | 26.7 µM (inactive) | > 100 µM (inactive) |  |  |  |  |  | 
